Marks after values point to notes of the source that are not given here. One block for each molecule: values may come before it.
Legend:
[1] = Renal functionality and gastrointestinal tolerability in hypertensive rats after diclofenac, with or without DON-NO; format: in vivo, Sprague-Dawley male rats; settings: spontaneously hypertensive rats, diclofenac 12 mg/kg i.p. daily, 5 days; nitroglycerin 3 mg/kg s.c.; vehicle = 100
guinea pigs = test: Capsaicin induced bronchoconstriction in enalapril-treated guinea pigs; format: in vivo, guinea pig; settings: enalapril 10 mg/kg and/or NO-naproxen 10 mg/kg intraduodenally, capsaicin 1 μg/kg i.v. 45 minutes later, vehicle = 100
Procedure: Capsaicin-induced bronchoconstriction in guinea pigs is an animal model related to the ability of angiotensin-converting-enzyme inhibitors to provoke cough in patients (Subissi et al, J. Cardiovasc. Pharmacol. 20/1, 139–146, 1992).
Experimental conditions were as previously described by Del Soldato et al (J. Pharmacological Methods 5, 279, 1981). Female guinea pigs weighing 300–400 g were anesthetized through intraperitoneal injection of sodiun 5,5 diethylbarbiturate (200 mg/kg) and kept under artificial respiration at constant positive pressure. Jugular right vein was incannuled for the administration of the compounds. Animals received intraduodenally enalapril (10 mg/kg), vehicle (carboxymethyl cellulose 2% by weight) and/or NO-naproxen (10 mg/kg). Forty-five minutes later, it was injected intravenously 0.1 ml capsaicin (1 μg/kg). Before and after capsaicin injection, tidal air changes were measured by means of modified Konzett apparatus connected to a polygraph amplifier.
Results were calculated as ratio of the responses obtained before and after the administration of each treatment, expressed as % of the vehicle (control) response and shown in Table 7.

Washed human platelets = test: Nitric oxide generation by chemiluminescence, platelets (method b); format: cell-based; settings: incubation of 100 μmoles of NO donor, 5 minutes
Procedure: Washed human platelets, prepared analogously with what described by Radomski et al, (Br. J. Pharmacol. 92, 639–1987), were utilized. Aliquots of 0.4 ml were incubated with scalar concentrations of NO donors (1–100 μg/ml) for 5 minutes. The incubation medium (f.i. Tyrode) was then analysed to determine the capacity of generating NO, by determination of nitric oxide by chemiluminiscence and cGMP, with the modalities described in the previous paragraph, for the analyses carried out on the endothelial cells. As to the determination by chemiluminescence, also in this case, on the basis of a calibration curve, prepared with scalar concentrations of nitrite, it was possible to determine quantitatively the concentration of generated NO. For instance, after incubation of 100 μmoles of nicorandil, an amount equal to 35 μmoles of NO was generated.

[2] = system: Cells of the human umbilical vein; test: Nitric oxide generation by chemiluminescence, endothelial cells (method a); format: cell-based; settings: incubation of 100 μmoles of NO donor, 5 minutes
Procedure: In particular the test relates to the generation of nitric oxide from the NO donors of the present invention, among which, for instance, nitroglycerine, nicorandil, nitro-prussiate, etc., when they are put in the presence of endothelial cells (method a), or platelets (method b). Cells of the human umbilical vein, spread on the plate, with density of 10^3 cells/plate were incubated with scalar concentrations of NO donor (1–100 μg/ml) for 5 minutes. The incubation medium (physiologic solvent, for instance Tyrode) was then analyzed to determine the capacity to generate NO, by means of: • 1) the determination of nitric oxide by chemiluminescence; • 2) the cGMP determination (cyclic GMP No. 2715 of the above mentioned Merck). […] The nitrites/nitrates present in the medium in these conditions are converted into NO which is then determined after its reaction with ozone, with consequent generation of light. As it usually occurs in the devices measuring chemiluminescence, the produced luminescence is directly proportional to the NO levels generated and can be measured by the suitable photomultiplier unit of a chemiluminescence analyser. The photomultiplier converts the incident light into electric voltage, which is then quantitatively recorded. […]

rats = test: Tolerance to nitroglycerin after repeated subcutaneous administration in rats; format: in vivo, rat; settings: nitroglycerin given with enalapril, repeated subcutaneous administration 1 mg/kg per day

SMILES: O=C(O)Cc1ccccc1Nc1c(Cl)cccc1Cl [DICLOFENAC, diclofenac]
BLOOD CREATININE, percent variation with respect to the control values [1]: 287* PERCENT

BRONCHOCONSTRICTION (%), % of the vehicle (control) response (guinea pigs): 290%
SMILES: CCOC(=O)[C@H](CCc1ccccc1)N[C@@H](C)C(=O)N1CCC[C@H]1C(=O)O [enalapril]

SMILES: O=C(NCCO[N+](=O)[O-])c1cccnc1 [nicorandil, N-[2-(nitrooxy)ethyl]-3-pyridine-carboxamide]
amount of NO generated (Washed human platelets): 35 µmol
amount of NO generated [2]: about 10 μmoles

SMILES: O=[N+]([O-])OCC(CO[N+](=O)[O-])O[N+](=O)[O-] [nitroglycerin, 1,2,3 propanetriol trinitrate]
tolerance after repeated administration (rats): did not cause any tolerance
